The results in this text go back to patent US12479834B2, “Phenol compound or salt thereof” (TAIHO PHARMACEUTICAL CO., LTD., priority 2019, dated 2025).

In general, IC50 refers to the concentration needed to halve the response being measured.

The structures appear in SMILES notation.

For one assay, the system named is NCI-H358 cells. Put plainly: Growth inhibition of KRAS-G12C mutant cell line NCI-H358 (CellTiter-Glo 2.0). It counts as cell-based. The following applies: Homo sapiens, 72 h; NCI-H358, 3-day culture with compound. On the procedure: KRAS-G12C mutant human lung cancer cell line NCI-H358 cells (ATCC, Cat #: CRL-5807) were suspended in RPMI1640 medium (manufactured by Fujifilm Wako Pure Chemical Corp.) containing 10% fetal bovine serum. The cell suspension was seeded at 500 cells/well into the wells of a 384-well flat-bottom microplate and cultured at 37° C. for 1 day in an incubator containing 5% CO2. The compound of the present invention was dissolved in DMSO and diluted with DMSO such that the concentration of the test compound was 500 times the final concentration. The solution of the test compound in DMSO was diluted with the medium used for suspending the cells, and the resultant was added to each well of the cell culture plate such that the final concentration of DMSO was 0.2%, followed by culture at 37° C. for another 3 days in an incubator containing 5% CO2.
Growth inhibition rate (%)=(C−T)/(C)×100 • T: the emission intensity in a well supplemented with the test compound. • C: the emission intensity in a well not supplemented with the test compound.
For orientation: Cellular ATP, detected with luciferase, serves as a proxy for viable cell number.

The next assay has as its target T1, KRAS G12C mutant (Homo sapiens, UniProt P01116, G12C).
T1 construct: 50 μM G12C K-Ras4B (1-169) protein and 1 mM BODIPY® FL GDP; His tag (N, cleaved yes); made in house; host or cells: E. coli BL21 (DE3)
Put plainly: Inhibition of SOS1-mediated nucleotide (GDP-GTP) exchange reaction of KRAS G12C mutant, BODIPY FL GDP fluorescence. It is filed as biochemical. The following applies: preincubated 25° C. 4 hours with 25 nM KRAS G12C bound with BODIPY FL GDP; SOS1 100 nM, GppNHp 1 μM, 30 minutes. The procedure, abridged:
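KRAS G12C (1-169) loaded with BODIPY FL GDP (25 nM) was preincubated with compound (5% DMSO) for 4 h at 25 °C. Exchange then ran 30 min with SOS1 (564-1049, 100 nM) and 1 µM GppNHp. IC50 came from the 485/520 nm fluorescence change, normalized to DMSO and no-GppNHp controls.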

In the next assay the target is T2, G12C K-Ras4B (1-169) (Homo sapiens, UniProt P01116, G12C).
T2 construct: G12C K-Ras4B (1-169) protein, which was a KRAS G12C mutant; His tag (N, cleaved yes); made in house; host or cells: E. coli BL21 (DE3)
Put plainly: Binding to KRAS G12C mutant, compound binding rate by LC-MS. The following applies: final compound concentration 2 μM, 1 μM protein, 2 hours at 25° C. A digest of the protocol:
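Covalent labelling at 2 μM final compound on a mix of 1 μM each wild-type and G12C K-Ras4B (1-169) (E. coli-expressed, tag removed) in 1×TBS, 0.1 mM TCEP, 2 h at 25° C., quenched with formic acid. Intact-protein ESI Q-TOF LC-MS; binding rate from adduct vs unbound protein signal, graded A–E in 20% bands.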

Consider `C=CC(=O)N1CC(NC(=O)c2c(C)nc(CNc3cc(C(C)(C)C)c(Cl)cc3O)n2C)C1` [Example 39, N-(1-Acryloylazetidin-3-yl)-2-(((5-(tert-butyl)-4-chloro-2-hydroxyphenyl)amino)methyl)-1,4-dimethyl-1H-imidazole-5-carboxamide], for which the results for the IC50 in the assay on NCI-H358 cells and on KRAS G12C mutant were 112 nM and 5 nM, respectively. The “binding rate for G12C K-Ras4B (1-169)” value on G12C K-Ras4B (1-169) is recorded as “A (80% or more)”.

On to `C=CC(=O)N1CC(NC(=O)c2c(C)nc(CNc3cc(C(C)(C)C)c(Cl)cc3O)n2CCCC)C1` [Example 43, N-(1-Acryloylazetidin-3-yl)-1-butyl-2-(((5-(tert-butyl)-4-chloro-2-hydroxyphenyl)amino)methyl)-4-methyl-1H-imidazole-5-carboxamide], for which the values for the IC50 in the assay on NCI-H358 cells and at KRAS G12C mutant were 351 nM and 7 nM, respectively. Further, the “binding rate for G12C K-Ras4B (1-169)” value on G12C K-Ras4B (1-169) is “A (80% or more)”.

Consider `C=CC(=O)N1CC(N(C)C(=O)c2ccc(CNc3cc(C(C)(C)C)c(Cl)cc3O)o2)C1` [Example 4, N-(1-Acryloylazetidin-3-yl)-5-(((5-(tert-butyl)-4-chloro-2-hydroxyphenyl)amino)methyl)-N-methylfuran-2-carboxamide], for which the IC50 amounted to 1170 nM in the assay on NCI-H358 cells and 11 nM against KRAS G12C mutant. For the same compound, the “binding rate for G12C K-Ras4B (1-169)” value at G12C K-Ras4B (1-169) is “A (80% or more)”.

`C=CC(=O)N1CC(NC(=O)c2cnc(CNc3cc(C(C)(C)C)c(Cl)cc3O)n2C)C1` [Example 18, N-(1-Acryloylazetidin-3-yl)-2-(((5-(tert-butyl)-4-chloro-2-hydroxyphenyl)amino)methyl)-1-methyl-1H-imidazole-5-carboxamide]: the IC50 in the assay on NCI-H358 cells is 562 nM; against KRAS G12C mutant, 11 nM. For the same compound, the “binding rate for G12C K-Ras4B (1-169)” value on G12C K-Ras4B (1-169) is on record as “A (80% or more)”.

For `C=CC(=O)N1CC(N(CC)C(=O)c2ccc(CNc3cc(C(C)(C)C)c(Cl)cc3O)o2)C1` [Example 5, N-(1-Acryloylazetidin-3-yl)-5-(((5-(tert-butyl)-4-chloro-2-hydroxyphenyl)amino)methyl)-N-ethylfuran-2-carboxamide], the half-maximal inhibitory concentration (IC50) is 699 nM with NCI-H358 cells and 12 nM at KRAS G12C mutant. Also, the “binding rate for G12C K-Ras4B (1-169)” value at G12C K-Ras4B (1-169) is “A (80% or more)”.

For the compound `C=CC(=O)N1CC(NC(=O)c2ncc(CNc3cc(C(C)(C)C)c(Cl)cc3O)o2)C1` [Example 12, N-(1-Acryloylazetidin-3-yl)-5-(((5-(tert-butyl)-4-chloro-2-hydroxyphenyl)amino)methyl)oxazole-2-carboxamide], the IC50 against KRAS G12C mutant was found to be 954 nM. Moreover, on G12C K-Ras4B (1-169), the “binding rate for G12C K-Ras4B (1-169)” value is “C (40% or more and less than 60%)”.

Compound `C=CC(=O)N1CC(NC(=O)c2coc(CNc3cc(C(C)(C)C)c(Cl)cc3O)n2)C1` [Example 13, N-(1-Acryloylazetidin-3-yl)-2-(((5-(tert-butyl)-4-chloro-2-hydroxyphenyl)amino)methyl)oxazole-4-carboxamide] registered a half-inhibitory concentration (IC50) against KRAS G12C mutant of 735 nM. The “binding rate for G12C K-Ras4B (1-169)” value on G12C K-Ras4B (1-169) was “A (80% or more)”.

With `C=CC(=O)N1CC(NC(=O)c2cnc(CNc3cc(C(F)(F)F)c(Cl)cc3O)n2C)C1` [Example 54, N-(1-Acryloylazetidin-3-yl)-2-(((4-chloro-2-hydroxy-5-(trifluoromethyl)phenyl)amino)methyl)-1-methyl-1H-imidazole-5-carboxamide], half-maximal inhibition against KRAS G12C mutant (IC50) was put at 420 nM. Besides, on G12C K-Ras4B (1-169), the “binding rate for G12C K-Ras4B (1-169)” value is “C (40% or more and less than 60%)”.

With `C=CC(=O)N1CC(NC(=O)c2sc(Cc3cc(C(C)(C)C)c(Cl)cc3O)nc2C)C1` [Example 95, N-(1-Acryloylazetidin-3-yl)-2-(5-(tert-butyl)-4-chloro-2-hydroxybenzyl)-4-methylthiazole-5-carboxamide], inhibition against KRAS G12C mutant was half-maximal at 467 nM (IC50). For the same compound, the “binding rate for G12C K-Ras4B (1-169)” value on G12C K-Ras4B (1-169) is “C (40% or more and less than 60%)”.

The compound `C=CC(=O)N1CC(NC(=O)c2nc(CNc3cc(C(C)(C)C)c(Cl)cc3O)co2)C1` [Example 14, N-(1-Acryloylazetidin-3-yl)-4-(((5-(tert-butyl)-4-chloro-2-hydroxyphenyl)amino)methyl)oxazole-2-carboxamide] returned a concentration for half-maximal inhibition (IC50) at KRAS G12C mutant of 420 nM. Further, the “binding rate for G12C K-Ras4B (1-169)” value at G12C K-Ras4B (1-169) is “A (80% or more)”.
